Source: patent US9249163B2, “PDE10a inhibitors for the treatment of type II diabetes” (Janssen Pharmaceutica, NV, priority 2013, dated 2016)
Structures can show the parent of a compound that is named as a salt.

Tests used:
[1] = molecular target: Rat recombinant PDE10a (rPDE10a) (Rattus norvegicus (Rat), UniProt Q9QYJ6); assay: In vitro assay PDE10a (rat recombinant PDE10a, SPA); assay type: biochemical; conditions: 60 nM cAMP, 60 min at rt, read-out: rPDE10a2 IC50
Method: Rat recombinant PDE10a (rPDE10a) was expressed in Sf9 cells using a recombinant rPDE10a baculovirus construct. Cells were harvested after 48 h of infection and the rPDE10a protein was purified by metal chelate chromatography on Ni-sepharose 6FF. Tested compounds were dissolved and diluted in 100% DMSO to a concentration 100 fold of the final concentration in the assay. Compound dilutions (0.4 μL) were added in 384 well plates to 20 μL of incubation buffer (50 mM Tris pH 7.8, 8.3 mM MgCl2, 1.7 mM EGTA). 10 μL of rPDE10a enzyme in incubation buffer was added and the reaction was started by addition of 10 μL substrate to a final concentration of 60 nM cAMP and 0.008 μCi ^3H-cAMP. The reaction was incubated for 60 min at rt. After incubation, the reaction was stopped with 20 μL of 17.8 mg/mL PDE SPA beads. After sedimentation of the beads during 30 min the radioactivity was measured in a Perkin Elmer Topcount scintillation counter and results were expressed as cpm. For blank values the enzyme was omitted from the reaction and replaced by incubation buffer. Control values were obtained by addition of a final concentration of 1% DMSO instead of compound.

[2] = molecular target: Human recombinant PDE10A2 (Homo sapiens (Human), UniProt Q9Y233); assay: In vitro hPDE10a (human recombinant PDE10A2, scintillation proximity assay); assay type: biochemical; conditions: human recombinant PDE10A2, 60 nM cAMP, 60 min at room temperature; read-out: hPDE10a2 IC50
Method: Human recombinant PDE10A2 was expressed in Sf9 cells, using a recombinant baculovirus construct containing the full length sequence containing a 6×His sequence following the start Met to allow metal affinity purification of the recombinant protein. Cells were harvested and the phosphodiesterase protein was purified by metal chelate chromatography on Ni-sepharose 6FF.
The affinity of the compounds of Formula (I) for phophodiesterases (PDE) was measured by a scintillation proximity assay (SPA). PDE Yttrium Silicate SPA beads allow PDE activity to be measured by direct binding of the primary phosphate groups of non-cyclic AMP or GMP to the beads via a complex iron chelation mechanism. The amount of bound tritiated product ([^3H]-AMP) is measured by liquid scintillation counting.
The compounds were dissolved and diluted in 100% DMSO in polystyrene plates to a concentration of 100-fold the final concentration in the assay. Human PDE10A enzyme solution (10 μL) was added to 20 μL, of incubation buffer (50 mM Tris pH 7.8, 8.3 mM MgCl2, 1.7 mM EGTA), 10 μL, substrate solution consisting of a mixture of non-tritiated and tritiated substrate (60 nM cAMP, 0.008 μCi ^3H-cAMP), and 0.4 μL, compound in 100% DMSO in a 384-well plate, and incubated for 60 min at room temperature. After incubation, the reaction was stopped with 20 μL, of stop solution, consisting of PDE SPA beads (17.8 mg beads/mL in 18 mM zinc sulphate). After sedimentation of the beads for 30 min, the radioactivity was measured in a Perkin Elmer Topcount scintillation counter and results were expressed as cpm. To measure the low control, no enzyme was added to the reaction mixture.
Data were calculated as the percentage of inhibition of total activity measured in the absence of test compound (% control).

Chain of Rat recombinant PDE10a (rPDE10a) (Q9QYJ6 whole entry): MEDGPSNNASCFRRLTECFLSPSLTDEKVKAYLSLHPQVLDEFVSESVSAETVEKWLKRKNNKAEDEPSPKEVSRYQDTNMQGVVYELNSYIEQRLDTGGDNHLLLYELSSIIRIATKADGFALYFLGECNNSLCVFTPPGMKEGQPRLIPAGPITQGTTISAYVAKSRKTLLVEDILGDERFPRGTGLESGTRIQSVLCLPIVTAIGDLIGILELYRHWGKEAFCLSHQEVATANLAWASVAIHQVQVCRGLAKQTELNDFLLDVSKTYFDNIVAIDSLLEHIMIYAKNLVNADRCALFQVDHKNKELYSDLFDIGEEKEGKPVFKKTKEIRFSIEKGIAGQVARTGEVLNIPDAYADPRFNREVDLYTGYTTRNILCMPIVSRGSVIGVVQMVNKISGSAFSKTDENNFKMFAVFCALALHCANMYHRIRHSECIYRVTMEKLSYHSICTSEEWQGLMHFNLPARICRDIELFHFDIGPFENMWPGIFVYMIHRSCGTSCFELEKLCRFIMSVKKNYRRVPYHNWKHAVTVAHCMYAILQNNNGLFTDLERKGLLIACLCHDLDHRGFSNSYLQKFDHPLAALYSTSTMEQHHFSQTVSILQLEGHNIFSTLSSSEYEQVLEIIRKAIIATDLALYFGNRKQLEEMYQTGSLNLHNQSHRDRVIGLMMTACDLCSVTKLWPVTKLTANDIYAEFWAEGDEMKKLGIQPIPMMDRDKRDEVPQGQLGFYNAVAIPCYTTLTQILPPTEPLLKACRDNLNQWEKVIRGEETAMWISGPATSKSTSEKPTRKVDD
Chain of Human recombinant PDE10A2 (Q9Y233 267-1055): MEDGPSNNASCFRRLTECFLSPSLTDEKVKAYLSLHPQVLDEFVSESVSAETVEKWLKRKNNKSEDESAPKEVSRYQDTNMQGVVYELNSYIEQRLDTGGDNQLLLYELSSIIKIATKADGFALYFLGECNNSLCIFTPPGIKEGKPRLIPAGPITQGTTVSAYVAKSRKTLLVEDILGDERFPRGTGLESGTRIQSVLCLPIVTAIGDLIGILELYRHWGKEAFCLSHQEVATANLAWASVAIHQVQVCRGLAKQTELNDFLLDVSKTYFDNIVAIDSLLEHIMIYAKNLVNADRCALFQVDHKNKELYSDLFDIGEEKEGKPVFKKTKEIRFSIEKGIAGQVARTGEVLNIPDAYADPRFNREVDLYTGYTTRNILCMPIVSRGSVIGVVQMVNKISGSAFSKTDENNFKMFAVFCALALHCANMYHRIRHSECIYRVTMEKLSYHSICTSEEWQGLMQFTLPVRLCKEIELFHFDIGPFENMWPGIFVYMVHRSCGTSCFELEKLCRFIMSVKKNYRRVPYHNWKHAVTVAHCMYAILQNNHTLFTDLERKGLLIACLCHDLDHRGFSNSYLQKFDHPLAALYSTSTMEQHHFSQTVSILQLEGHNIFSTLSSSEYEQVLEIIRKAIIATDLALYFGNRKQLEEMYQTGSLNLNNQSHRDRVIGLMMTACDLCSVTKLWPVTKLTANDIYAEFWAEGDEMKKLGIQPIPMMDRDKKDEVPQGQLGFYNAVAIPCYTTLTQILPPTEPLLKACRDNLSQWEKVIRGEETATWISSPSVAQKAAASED

Row | IC50 [1] | IC50 [2] | SMILES
1 | < 1 nM | < 1 nM | Oc1nc(-c2cnc(N3CCOCC3)c3nc(COc4ccc5ccccc5n4)cn23)no1 [Cpd 75, 3-(8-Morpholino-2-((quinolin-2-yloxy)methyl)imidazo[1,2-a]pyrazin-5-yl)-1,2,4-oxadiazol-5-ol]
2 | 8 nM | 19 nM | CN1CCN(c2ncc(-c3cnc(N4CCOCC4)c4nc(COc5ccc6ccccc6n5)cn34)cn2)CC1 [Cpd 123, 4-(5-(2-(4-Methylpiperazin-1-yl)pyrimidin-5-yl)-2-((quinolin-2-yloxy)methyl)imidazo[1,2-a]pyrazin-8-yl)morpholine methane sulfonic acid salt]
3 | 6 nM | 12 nM | O=C(O)CCC(=O)Nc1ccc(-c2cnc(N3CCOCC3)c3nc(/C=C/c4ccc5ccccc5n4)cn23)cc1 [Cpd 32]
4 | 9 nM | 14 nM | CC(C)[C@H](NC(=O)c1ccc(-c2cnc(N3CCOCC3)c3nc(/C=C/c4ccc5ccccc5n4)cn23)cc1)C(=O)O [Cpd 44, (S,E)-3-Methyl-2-(4-(8-morpholino-2-(2-(quinolin-2-yl)vinyl)imidazo[1,2-a]pyrazin-5-yl)benzamido)butanoic acid trifluoroacetic acid salt]
5 | 21 nM | 19 nM | COCOc1c(C)cc(-c2cnc(N3CCOCC3)c3nc(/C=C/c4ccc5ccccc5n4)cn23)cc1C [Cpd 41, (E)-4-(5-(4-(methoxymethoxy)-3,5-dimethylphenyl)-2-(2-(quinolin-2-yl)vinyl)imidazo[1,2-a]pyrazin-8-yl)morpholine]
6 | 40 nM | 85 nM | O=C1CN(c2ncc(-c3ccc(N4CCNCC4)nc3)n3cc(COc4ccc5ccccc5n4)nc23)CCN1 [Cpd 115, 4-(5-(6-(piperazin-1-yl)pyridin-3-yl)-2-((quinolin-2-yloxy)methyl)imidazo[1,2-a]pyrazin-8-yl)piperazin-2-one trifluoroacetic acid salt]
7 | 2 nM | 1 nM | NS(=O)(=O)c1ccc(-c2cnc(N3CCOCC3)c3nc(COc4ccc5ccccc5n4)cn23)cc1 [Cpd 87, 4-(8-Morpholino-2-((quinolin-2-yloxy)methyl)imidazo[1,2-a]pyrazin-5-yl)benzenesulfonamide]
8 | 16 nM |  | CS(=O)(=O)NC(=O)c1ccc(-c2cnc(N3CCOCC3)c3nc(/C=C/c4ccc5ccccc5n4)cn23)cc1 [Cpd 62, (E)-N-(Methylsulfonyl)-4-(8-morpholino-2-(2-(quinolin-2-yl)vinyl)imidazo[1,2-a]pyrazin-5-yl)benzamide hydrochloric acid salt]
9 | 6 nM |  | CS(=O)(=O)NC(=O)c1ccc(-c2cnc(N3CCOCC3)c3nc(CCc4ccc5ccccc5n4)cn23)cc1 [Cpd 61, N-(Methylsulfonyl)-4-(8-morpholino-2-(2-(quinolin-2-yl)ethyl)imidazo[1,2-a]pyrazin-5-yl)benzamide hydrochloric acid salt]

Row | SMILES | IC50 [1] | IC50 [2]
10 | C(=C\c1cn2c(-c3ccc(N4CCNCC4)nc3)cnc(N3CCOCC3)c2n1)/c1ccc2ccccc2n1 [Cpd 105, (E)-4-(5-(6-(piperazin-1-yl)pyridin-3-yl)-2-(2-(quinolin-2-yl)vinyl)imidazo[1,2-a]pyrazin-8-yl)morpholine trifluoroacetic acid salt] | 22 nM | 50 nM
11 | O=S1(=O)CCN(c2ncc(-c3ccc(N4CCNCC4)nc3)n3cc(COc4ccc5ccccc5n4)nc23)CC1 [Cpd 117, 4-(5-(6-(Piperazin-1-yl)pyridin-3-yl)-2-((quinolin-2-yloxy)methyl)imidazo[1,2-a]pyrazin-8-yl)thiomorpholine 1,1-dioxide trifluoroacetic acid salt] | 32 nM | 56 nM
12 | O=C(O)CNc1ccc(-c2cnc(N3CCOCC3)c3nc(/C=C/c4ccc5ccccc5n4)cn23)cn1 [Cpd 66, (E)-2-(5-(8-Morpholino-2-(2-(quinolin-2-yl)vinyl)imidazo[1,2-a]pyrazin-5-yl)pyridin-2-ylamino)acetic acid trifluoroacetic acid salt] | 3 nM | 2 nM
